Measured values: patent US20220162215A1, “COMPOSITIONS AND METHODS OF USING THE SAME FOR TREATMENT OF NEURODEGENERATIVE AND MITOCHONDRIAL DISEASE” (MITOKININ, INC., priority 2019, published 2022)
Where two headings read alike, the source gives them in different places.

Assays:
[1] = test system: PINK1/parkin pathway; assay: Parkin recruitment to mitochondria, live cell imaging; assay type: cell-based, human; conditions: PINK1wt vs PINK1ko cells, FIG. 18
Procedure: When the PINK1/parkin pathway is activated by FCCP, PINK1 is stabilized on the mitochondrial membrane, and its activity leads to the recruitment of parkin to the mitochondria (Narendra et al., PLoS Biol 2010; Narendra et al., J. Cell Biol 2008; Vives-Bauza et al., PNAS 2009). The aim of this assay is to test how MTK compounds affect the speed of parkin recruitment to the mitochondria. Briefly, HeLa-MKYP cells were plated at 7,000 cells/well in 96-well plates along with compounds at various concentrations. Following 16 hours of incubation, cells were treated in phenol-free media with 1 μM FCCP/oligomycin (F/O) along with compounds at various doses for 2-3 hours. Immediately following addition of new media, the cell treatment plate was transferred to a CO2 and temperature-regulated chamber in a high-content imaging microscope [Molecular Devices], to acquire images from live cells at regular intervals during the treatment timecourse. Appropriate controls were included on each plate to obtain a maximum signal from treatment with 2 μM F/O, or a minimum signal from cells treated with no F/O with DMSO for each cell type tested (HeLa-MKYP WT or PINK1^KO). Images were analyzed using MetaExpress 6 software package, and automatically processed after setting thresholds to define overlap between the YFP-parkin signal and red mitochondrial signal based on controls. […]

[2] = In vivo summary, pharmacokinetics, mouse
Procedure: Referring to Tables 8A-C below, an in vivo summary of EP-0035985 IV at 1 mg/kg (8A), PO 10 mg/kg (8B), and a tissue distribution, mouse (8C) is shown below.

What does the source list for `FC(F)(F)c1cc2c(NC3CCCc4ccccc43)ncnc2[nH]1` (stereo not drawn) [Compound 15]?
rate of Parkin recruitment [1]: increases the rate of Parkin recruitment in PINK1^wt but not PINK1^ko cells; AUCExtr ([2]; IV at 1 mg/kg, Table 8A): 1.1%; AUClast ([2]; IV at 1 mg/kg, Table 8A): 481.3 ng·h/mL; C0 ([2]; IV at 1 mg/kg, Table 8A): 1569.0 ng/mL; CL ([2]; IV at 1 mg/kg, Table 8A): 34.3 mL/min/kg; MRTlnf ([2]; IV at 1 mg/kg, Table 8A): 0.7 h; T1/2 ([2]; IV at 1 mg/kg, Table 8A): 1.4 h; Vss ([2]; IV at 1 mg/kg, Table 8A): 1.5 L/kg; Vz ([2]; IV at 1 mg/kg, Table 8A): 4.0 L/kg; AUClast ([2]; PO 10 mg/kg, Table 8B): 357.3 ng·h/mL; AUClnf ([2]; PO 10 mg/kg, Table 8B): 803.3 ng·h/mL; MRTlnf ([2]; PO 10 mg/kg, Table 8B): 17.4 h; Vss ([2]; PO 10 mg/kg, Table 8B): 2.5 L/kg; AUC ([2]; in vivo, IV at 1 mg/kg, Table 8A): 487 ng·h/mL; C0 ([2]; in vivo, PO 10 mg/kg, Table 8B, read-out: C0): 0.5 ng/mL
